Reference: patent US20230416239A1, “COMPOUNDS AND METHODS FOR TREATING A CYTOKINE-MEDIATED DISEASE” (CONSERVATOIRE NATIONAL DES ARTS ET MÉTIERS, priority 2020, published 2023)

Columns and labels:
TNFα = TNFα (Homo sapiens, UniProt P01375); assay: Immunoassay binding test, TNFa; conditions: compounds 100 to 0.78 μM; TNFα 10 ng/ml, receptor 100 ng/ml; read-out: BINDING TNF IC50
How it was run: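 ELISA-type binding test: receptor-coated plates blocked with 2% BSA, then cytokine (six-point dilution series) preincubated 2 h at 37 °C and bound overnight at 4 °C. Detection used biotinylated anti-cytokine antibody and avidin-HRP, read as OD at 450 nm. For IL-6, IL-6Ra was present at 200 ng/ml final.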

TNFa/TNFRI interaction = TNFa/TNFRI interaction (Homo sapiens, UniProt P01375); assay: TNFa/TNFRI interaction displacement test; format: binding; conditions: for Displacement (%): compounds at 50 μM, human TNFRI 100 ng/ml; for Displacement EC50 TNFa in presence of compound: Difference: Compound EC50 minus SPD304 EC50;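 for Displacement EC50 TNFa in presence of compound: Difference: SPD304 reference at 20 µM final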
How it was run: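 Plates coated overnight at 4° C with human TNFRI (100 ng/ml) and blocked with 2% BSA, then test mixtures were incubated overnight at 4° C. Bound cytokine detected with biotinylated anti-cytokine antibody (2 h, 37° C) and avidin-HRP, read as OD at 450 nm.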

IL-4 = biological target: T1, IL-4 (Homo sapiens, UniProt P05112); assay: Immunoassay binding test, IL-4; conditions: for IC50: IL-4 400 ng/ml, receptor 100 ng/ml, read-out: BINDING IL4 IC50
T1 sequence (P05112 25-153): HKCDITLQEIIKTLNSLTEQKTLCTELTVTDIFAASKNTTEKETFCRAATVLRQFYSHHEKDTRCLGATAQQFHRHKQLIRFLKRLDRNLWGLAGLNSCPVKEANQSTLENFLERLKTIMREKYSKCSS
How it was run: (§1)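 Detection used OD at 450 nm after biotinylated anti-cytokine antibody and avidin-HRP were applied to receptor-coated wells. Those wells had received, overnight at 4 °C, cytokine preincubated 2 h at 37 °C with compound at final 100 to 0.78 μM. IL-6 mixtures further contained IL-6Ra at 200 ng/ml final.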

IL-13 = IL-13 (Homo sapiens, UniProt P35225); assay: Immunoassay binding test, IL-13; conditions: for IC50: IL-13 400 ng/ml, receptor 100 ng/ml, read-out: BINDING IL13 IC50
How it was run: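 Receptor-coated plates; compounds (100 to 0.78 μM final) preincubated 2 h at 37° C with fixed cytokine, then bound to receptor overnight at 4° C. Bound cytokine detected with biotinylated anti-cytokine antibody and avidin-HRP, OD 450 nm.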

IL-6 = IL-6 (Homo sapiens, UniProt P05231); assay: Immunoassay binding test, IL-6 (gp130 receptor, IL-6Ra present); conditions: IL-6Ra 200 ng/ml
How it was run: as §1

IL-6, sequence (P05231 30-212, species assumed): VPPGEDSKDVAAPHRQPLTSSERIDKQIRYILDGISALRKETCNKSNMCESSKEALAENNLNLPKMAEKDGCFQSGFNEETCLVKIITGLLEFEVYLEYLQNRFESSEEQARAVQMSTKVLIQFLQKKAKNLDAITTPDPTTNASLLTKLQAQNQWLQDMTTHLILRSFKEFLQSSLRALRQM
TNFα, sequence (P01375 77-233 limits assumed, species assumed): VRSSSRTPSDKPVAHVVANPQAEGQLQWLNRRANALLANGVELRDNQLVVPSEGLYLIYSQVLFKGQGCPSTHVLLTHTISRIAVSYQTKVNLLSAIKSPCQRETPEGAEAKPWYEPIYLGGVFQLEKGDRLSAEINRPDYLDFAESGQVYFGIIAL
TNFa/TNFRI interaction, sequence (P01375 77-233 limits assumed): as the sequence (P01375 77-233 limits assumed, species assumed) above
IL-13, sequence (P35225 25-146, species assumed): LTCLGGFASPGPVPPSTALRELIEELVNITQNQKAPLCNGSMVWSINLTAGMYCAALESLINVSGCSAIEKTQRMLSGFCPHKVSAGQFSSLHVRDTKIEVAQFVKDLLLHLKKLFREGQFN

IC50 (TNFα) [µM] | Displacement (%) (TNFa/TNFRI interaction) | BINDING IL4 % Neutra at 100 μM (IL-4) [%] | IC50 (IL-4) [µM] | BINDING IL13 % Neutra at 100 μM (IL-13) [%] | BINDING IL6 % Neutra at 100 μM (IL-6) [%] | IC50 (IL-13) [µM] | Displacement EC50 TNFa in presence of compound: Difference (TNFa/TNFRI interaction) [ng/mL] | Compound
> 50 | 3 | 31.0 | > 100 | 0 | 1 |  |  | CCN(CC)S(=O)(=O)NCCCCN(Cc1cccnc1F)Cc1cn(S(=O)(=O)c2ccccc2)c2ccccc12 [Compound 79]
14.5 | 125 | 96.6 | 8.1 | 38.3 | 12.4 | > 50 |  | CN(CCN(Cc1ccncc1)Cc1cn(S(=O)(=O)c2ccccc2)c2ccccc12)C1CCCCC1 [Compound 28]
19.1 | 123 | 96.3 | 4 | 96.4 | 20.4 | 7.4 |  | FC(F)(F)c1cccc(-n2cc(CN(CCCCCNC3CCCCC3)Cc3ccncc3)c3ccccc32)c1 [Compound 37]
11.2 | 147 | 92.0 | 8.5 | 85.8 | 0 | > 50 |  | O=S(=O)(c1ccccc1)n1cc(CN(CCCCNC2CCCCCCC2)Cc2cccnc2F)c2ccccc21 [Compound 75, N′-cyclooctyl-N^4-((2-fluoropyridin-3-yl)methyl)-N^4-((1-(phenylsulfonyl)-1H-indol-3-yl)methyl)butane-1,4-diamine]
6.4 | 215 | 89.1 | 4.7 | 85.1 | 3 | 36 |  | CCN(CCCCN(Cc1cccnc1F)Cc1cn(S(=O)(=O)c2ccccc2)c2ccccc12)C1CCCCC1 [Compound 66, N′-cyclohexyl-N′-ethyl-N^4-((2-fluoropyridin-3-yl)methyl)-N^4-((1-(phenylsulfonyl)-1H-indol-3-yl)methyl)butane-1,4-diamine]
16.9 | 120 | 98.4 | 4.1 | 95.2 | -1.3 | > 50 |  | FC(F)(F)c1cccc(-n2cc(CN(CCCCNC3CCCCC3)Cc3ccncc3)c3ccccc32)c1 [Compound 22]
7.2 | 169 | 74.9 | 5.1 | 66.1 | 0 | 25.9 |  | CCN(CCOCCN(Cc1cccnc1F)Cc1cn(S(=O)(=O)c2ccccc2)c2ccccc12)C1CCCC1 [Compound 107, N-ethyl-N-(2-(2-(((2-fluoropyridin-3-yl)methyl)((1-(phenylsulfonyl)-1H-indol-3-yl)methyl)amino)ethoxy)ethyl)cyclopentanamine]
16.6 | 153 | 95.7 | 3.6 | 98.6 | 8.7 | 3.1 | 3.4 | FC(F)(F)c1cccc(-n2cc(CN(Cc3ccncc3)CC3CCCN(C4CCCCC4)C3)c3ccccc32)c1 (stereo not shown) [Compound 6]
18.8 | 28 | 95.5 | 4.4 | 94.2 | 6 | 8.2 |  | NCCCCN(Cc1cn(S(=O)(=O)c2ccccc2)c2ccccc12)Cc1cn(S(=O)(=O)c2ccccc2)c2ccccc12 [Compound 87]
14.1 | 107 | 95.5 | 8.4 | 66 | −17.2 | > 50 |  | O=S(=O)(c1ccccc1)n1cc(CN(CCNC2CCCCC2)Cc2ccncc2)c2ccccc21 [Compound 26]
8.2 | 173 | 87.4 | 4.4 | 91.8 | 0 | > 50 |  | CCCCN(CCOCCN(Cc1cccnc1F)Cc1cn(S(=O)(=O)c2ccccc2)c2ccccc12)C1CCCCC1 [Compound 99, N-butyl-N-(2-(2-(((2-fluoropyridin-3-yl)methyl)((1-(phenylsulfonyl)-1H-indol-3-yl)methyl)amino)ethoxy)ethyl)cyclohexanamine]
4.6 | 196 | 96.4 | 6.6 | 96.9 | 5 |  | 7.4 | O=S(=O)(c1ccccc1)n1cc(CN(Cc2cccnc2)CC2CCCN(C3CCCCC3)C2)c2ccccc21 (stereo not shown) [Compound 3]
11.2 | 160 | 89.8 | 2.8 | 91.3 | 0 | 7.8 |  | CCN(CCOCCN(Cc1cccnc1F)Cc1cn(S(=O)(=O)c2ccccc2)c2ccccc12)C1CCCCC1 [Compound 93, N-ethyl-N-(2-(2-(((2-fluoropyridin-3-yl)methyl)((1-(phenylsulfonyl)-1H-indol-3-yl)methyl)amino)ethoxy)ethyl)cyclohexanamine]
7 | 152 | 94.7 | 4.8 | 87.6 | 0 | 9.2 | 4.7 | O=S(=O)(c1ccccc1)n1cc(CN(Cc2cccc(F)n2)CC2CCCN(C3CCCCC3)C2)c2ccccc21 (stereo not shown) [Compound 41]
6.6 | 160 | 91.9 | 5.7 | 87.3 | 0 | > 50 |  | CN(CCCCN(Cc1cccnc1F)Cc1cn(S(=O)(=O)c2ccccc2)c2ccccc12)C1CCCCCC1 [Compound 74, N′-cycloheptyl-N^4-((2-fluoropyridin-^3-yl)methyl)-N′-methyl-N^4-((1-(phenylsulfonyl)-1H-indol-^3-yl)methyl)butane-1,4-diamine]
8.4 | 115 | 92.7 | 5.2 | 91.6 | 0 | 15.2 |  | CN(CCCCCN(Cc1ccnc(F)c1)Cc1cn(S(=O)(=O)c2ccccc2)c2ccccc12)C1CCCCC1 [Compound 53, N1-cyclohexyl-N5-((2-fluoropyridin-4-yl)methyl)-N1-methyl-N5-((1-(phenylsulfonyl)-1H-indol-3-yl)methyl)pentane-1,5-diamine]
26.8 | 105 | 81.5 | 7.8 | 67.9 | 0 | 38.5 |  | O=S(=O)(c1ccccc1)n1cc(CN(CCCCCNCc2cccnc2F)Cc2cccnc2F)c2ccccc21 [Compound 62]
9.2 | 123 | 88.2 | 13.2 | 79.8 | 0 | > 50 |  | CN(CCOCCN(Cc1cccnc1F)Cc1cn(S(=O)(=O)c2ccccc2)c2ccccc12)C1CCCC1 [Compound 104]
6.7 | 126 | 92.5 | 2.1 | 89.1 | 1 | 10.4 |  | CN(CCCCCN(Cc1ccc(F)nc1)Cc1cn(S(=O)(=O)c2ccccc2)c2ccccc12)C1CCCCC1 [Compound 58]
9.4 | 146 | 97.3 | 8.5 | 86.2 | 3.3 | > 50 | 7.8 | O=S(=O)(c1ccccc1)n1cc(CN(CCCNC2CCCCC2)Cc2cccnc2)c2ccccc21 [Compound 7]
